Results from PubChem BioAssay (NCI).
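A five-concentration, 48-hour dose response in 96-well plates underlies each endpoint, interpolated linearly between surrounding concentrations. TGI is the concentration that stops growth completely.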

Legend:
Test in all cases: growth of human tumour cells (NCI), 48 h
786-0 renal = test system: 786-0 renal
A498 renal = test system: A498 renal
A549 NSCLC = test system: A549 NSCLC
ACHN renal = test system: ACHN renal
CCRF-CEM leukemia = test system: CCRF-CEM leukemia
COLO 205 colon = test system: COLO 205 colon
DLD-1 colon = test system: DLD-1 colon
DMS 273 small cell lung = test system: DMS 273 small cell lung
EKVX NSCLC = test system: EKVX NSCLC
HCC-2998 colon = test system: HCC-2998 colon
HCT-116 colon = test system: HCT-116 colon
HL-60(TB) leukemia = test system: HL-60(TB) leukemia
HOP-62 NSCLC = test system: HOP-62 NSCLC
HOP-92 NSCLC = test system: HOP-92 NSCLC
HT29 colon = test system: HT29 colon
IGROV1 ovarian = test system: IGROV1 ovarian
K-562 leukemia = test system: K-562 leukemia
KM12 colon = test system: KM12 colon
KM20L2 colon = test system: KM20L2 colon
LOX IMVI melanoma = test system: LOX IMVI melanoma
LXFL 529 NSCLC = test system: LXFL 529 NSCLC
M14 melanoma = test system: M14 melanoma
M19-MEL melanoma = test system: M19-MEL melanoma
MALME-3M melanoma = test system: MALME-3M melanoma
MOLT-4 leukemia = test system: MOLT-4 leukemia
NCI-H226 lung = test system: NCI-H226 lung
NCI-H23 lung = test system: NCI-H23 lung
NCI-H460 lung = test system: NCI-H460 lung
NCI-H522 lung = test system: NCI-H522 lung
OVCAR-3 ovarian = test system: OVCAR-3 ovarian
OVCAR-5 ovarian = test system: OVCAR-5 ovarian
OVCAR-8 ovarian = test system: OVCAR-8 ovarian
RPMI-8226 leukemia = test system: RPMI-8226 leukemia
RXF 393 renal = test system: RXF 393 renal
RXF-631 renal = test system: RXF-631 renal
SF-268 CNS = test system: SF-268 CNS
SF-295 CNS = test system: SF-295 CNS
SF-539 CNS = test system: SF-539 CNS
SK-MEL-2 melanoma = test system: SK-MEL-2 melanoma
SK-MEL-28 melanoma = test system: SK-MEL-28 melanoma
SK-MEL-5 melanoma = test system: SK-MEL-5 melanoma
SK-OV-3 ovarian = test system: SK-OV-3 ovarian
SNB-75 CNS = test system: SNB-75 CNS
SNB-78 CNS = test system: SNB-78 CNS
SW-620 colon = test system: SW-620 colon
TK-10 renal = test system: TK-10 renal
U251 CNS = test system: U251 CNS
UACC-257 melanoma = test system: UACC-257 melanoma
UACC-62 melanoma = test system: UACC-62 melanoma
UO-31 renal = test system: UO-31 renal
XF 498 CNS = test system: XF 498 CNS
CAKI-1 renal = test system: CAKI-1 renal
DMS 114 small cell lung = test system: DMS 114 small cell lung
HCT-15 colon = test system: HCT-15 colon
HOP-18 NSCLC = test system: HOP-18 NSCLC
OVCAR-4 ovarian = test system: OVCAR-4 ovarian
SN12C renal = test system: SN12C renal
SNB-19 CNS = test system: SNB-19 CNS
SR leukemia = test system: SR leukemia

C/C(CC(=O)Nc1ccccc1C)=N/NS(=O)(=O)c1ccc(C)cc1
TGI (786-0 renal): > 100 µM | TGI (A498 renal): > 100 µM | TGI (A549 NSCLC): > 100 µM | TGI (ACHN renal): > 100 µM | TGI (CCRF-CEM leukemia): > 100 µM | TGI (COLO 205 colon): > 100 µM | TGI (DLD-1 colon): > 100 µM | TGI (DMS 273 small cell lung): > 100 µM | TGI (EKVX NSCLC): > 100 µM | TGI (HCC-2998 colon): > 100 µM | TGI (HCT-116 colon): > 100 µM | TGI (HL-60(TB) leukemia): > 100 µM | TGI (HOP-62 NSCLC): > 100 µM | TGI (HOP-92 NSCLC): > 100 µM | TGI (HT29 colon): > 100 µM | TGI (IGROV1 ovarian): > 100 µM | TGI (K-562 leukemia): > 100 µM | TGI (KM12 colon): > 100 µM | TGI (KM20L2 colon): > 100 µM | TGI (LOX IMVI melanoma): > 100 µM | TGI (LXFL 529 NSCLC): > 100 µM | TGI (M14 melanoma): > 100 µM | TGI (M19-MEL melanoma): > 100 µM | TGI (MALME-3M melanoma): > 100 µM | TGI (MOLT-4 leukemia): > 100 µM | TGI (NCI-H226 lung): > 100 µM | TGI (NCI-H23 lung): > 100 µM | TGI (NCI-H460 lung): > 100 µM | TGI (NCI-H522 lung): > 100 µM | TGI (OVCAR-3 ovarian): > 100 µM | TGI (OVCAR-5 ovarian): > 100 µM | TGI (OVCAR-8 ovarian): > 100 µM | TGI (RPMI-8226 leukemia): > 100 µM | TGI (RXF 393 renal): > 100 µM | TGI (RXF-631 renal): > 100 µM | TGI (SF-268 CNS): > 100 µM | TGI (SF-295 CNS): > 100 µM | TGI (SF-539 CNS): > 100 µM | TGI (SK-MEL-2 melanoma): > 100 µM | TGI (SK-MEL-28 melanoma): > 100 µM | TGI (SK-MEL-5 melanoma): > 100 µM | TGI (SK-OV-3 ovarian): > 100 µM | TGI (SNB-75 CNS): > 100 µM | TGI (SNB-78 CNS): > 100 µM | TGI (SW-620 colon): > 100 µM | TGI (TK-10 renal): > 100 µM | TGI (U251 CNS): > 100 µM | TGI (UACC-257 melanoma): > 100 µM | TGI (UACC-62 melanoma): > 100 µM | TGI (UO-31 renal): > 100 µM | TGI (XF 498 CNS): > 100 µM

CCOC(=O)C12C(C(=O)OC)=C(C)N(NC(=O)Nc3ccccc3)C1(N)N(NC(=O)Nc1ccccc1)C(C)=C2C(=O)OC (centres undefined)
TGI (786-0 renal): > 100 µM | TGI (A498 renal): > 100 µM | TGI (A549 NSCLC): > 100 µM | TGI (ACHN renal): > 100 µM | TGI (CAKI-1 renal): > 100 µM | TGI (CCRF-CEM leukemia): 59 µM | TGI (COLO 205 colon): > 56.2 µM | TGI (DLD-1 colon): > 100 µM | TGI (DMS 114 small cell lung): 83.6 µM | TGI (DMS 273 small cell lung): > 72.2 µM | TGI (EKVX NSCLC): > 100 µM | TGI (HCC-2998 colon): 86.8 µM | TGI (HCT-116 colon): 59.4 µM | TGI (HCT-15 colon): > 100 µM | TGI (HL-60(TB) leukemia): 48.8 µM | TGI (HOP-18 NSCLC): > 86 µM | TGI (HOP-62 NSCLC): 49 µM | TGI (HOP-92 NSCLC): 66.3 µM | TGI (HT29 colon): 52.9 µM | TGI (IGROV1 ovarian): > 100 µM | TGI (K-562 leukemia): > 73.5 µM | TGI (KM12 colon): 47.8 µM | TGI (KM20L2 colon): 42.8 µM | TGI (LOX IMVI melanoma): 33.6 µM | TGI (LXFL 529 NSCLC): > 79.5 µM | TGI (M14 melanoma): 45.6 µM | TGI (M19-MEL melanoma): 33.2 µM | TGI (MALME-3M melanoma): 50.7 µM | TGI (MOLT-4 leukemia): 46.7 µM | TGI (NCI-H226 lung): > 100 µM | TGI (NCI-H23 lung): > 100 µM | TGI (NCI-H460 lung): > 94.2 µM | TGI (NCI-H522 lung): 55.3 µM | TGI (OVCAR-3 ovarian): 60.2 µM | TGI (OVCAR-4 ovarian): > 100 µM | TGI (OVCAR-5 ovarian): > 100 µM | TGI (OVCAR-8 ovarian): > 100 µM | TGI (RPMI-8226 leukemia): 74 µM | TGI (RXF 393 renal): 74.3 µM | TGI (SF-268 CNS): > 86.7 µM | TGI (SF-295 CNS): 60 µM | TGI (SF-539 CNS): 37.9 µM | TGI (SK-MEL-2 melanoma): 37.5 µM | TGI (SK-MEL-28 melanoma): > 88.7 µM | TGI (SK-MEL-5 melanoma): 39.3 µM | TGI (SK-OV-3 ovarian): > 100 µM | TGI (SN12C renal): > 100 µM | TGI (SNB-19 CNS): > 100 µM | TGI (SNB-75 CNS): > 100 µM | TGI (SNB-78 CNS): > 100 µM | TGI (SR leukemia): 59.1 µM | TGI (SW-620 colon): > 100 µM | TGI (TK-10 renal): > 100 µM | TGI (U251 CNS): 35.8 µM | TGI (UACC-257 melanoma): 62.9 µM | TGI (UACC-62 melanoma): 34.5 µM | TGI (UO-31 renal): > 100 µM | TGI (XF 498 CNS): 59.1 µM
